Reference: the supplement of paper PMC10307832

Tests used:
Assay in all cases: relative viability (nuclei count vs DMSO), 5 days (fraction); higher = more cells survive
[1] = compound: COc1cc2c(Oc3ccc4[nH]c(C)cc4c3F)ncnc2cc1OCCCN1CCCC1 [Cediranib] + CS(=O)(=O)CCNCc1ccc(-c2ccc3ncnc(Nc4ccc(OCc5cccc(F)c5)c(Cl)c4)c3c2)o1 [Lapatinib] (partner 2 µM)
Method in brief: (§1)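 The day after seeding in 1536-well plates, lung cancer cell lines were treated by pin tool with a single drug, or with a fixed anchor-drug dose together with five library-drug doses (not always all listed) in √10 steps. After 5 days, a combined fix-and-stain solution (final 0.05% Triton X-100, 1% formaldehyde, 1 ug/ml Hoechst) was added. Nuclei counted on 4× images gave relative viability as treated counts over vehicle counts, reported as the median of duplicate plates.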

[2] = compound: O=C(C[C@H]1NCCC[C@@H]1O)Cn1cnc2cc(Br)c(Cl)cc2c1=O (racemic) [Halofuginone] + Cc1nc(NC(=O)N2CCC[C@H]2C(N)=O)sc1-c1ccnc(C(C)(C)C(F)(F)F)c1 [Alpelisib] (partner 2 µM)
Method in brief: as §1

[3] = compound: O=C(C[C@H]1NCCC[C@@H]1O)Cn1cnc2cc(Br)c(Cl)cc2c1=O (racemic) [Halofuginone] + COc1cc2c(Oc3ccc(NC(=O)C4(C(=O)Nc5ccc(F)cc5)CC4)cc3F)ccnc2cc1OCCCN1CCOCC1 [Foretinib] (partner 0.25 µM)
Method in brief: as §1

[4] = compound: COc1cc2c(Oc3ccc4[nH]c(C)cc4c3F)ncnc2cc1OCCCN1CCCC1 [Cediranib] + C[C@@H](Oc1cc(-c2cnn(C3CCNCC3)c2)cnc1N)c1c(Cl)ccc(F)c1Cl [Crizotinib] (partner 1 µM)
Method in brief: as §1

Cell Line | relative viability ([1]; first compound 0.04 µM) | relative viability ([1]; first compound 0.1265 µM) | relative viability ([1]; first compound 0.4 µM) | relative viability ([1]; first compound 1.265 µM) | relative viability ([1]; first compound 4 µM) | relative viability ([2]; first compound 0.001 µM) | relative viability ([2]; first compound 0.003162 µM) | relative viability ([2]; first compound 0.01 µM) | relative viability ([2]; first compound 0.03162 µM) | relative viability ([2]; first compound 0.1 µM) | relative viability ([3]; first compound 0.001 µM) | relative viability ([3]; first compound 0.003162 µM) | relative viability ([3]; first compound 0.01 µM) | relative viability ([3]; first compound 0.03162 µM) | relative viability ([3]; first compound 0.1 µM) | relative viability ([4]; first compound 0.04 µM) | relative viability ([4]; first compound 0.1265 µM) | relative viability ([4]; first compound 0.4 µM) | relative viability ([4]; first compound 1.265 µM) | relative viability ([4]; first compound 4 µM)
LC-2-ad | 1.07 | 0.656 | 0.94 | 1.02 | 0.731 | 0.952 | 0.847 | 0.861 | 0.772 | 0.334 | 0.928 | 0.973 | 0.866 | 1 | 0.497 | 0.462 | 0.425 | 0.366 | 0.474 | 0.419
LCLC-97TM1 | 1.03 |  | 0.976 | 1.15 | 1.01 | 0.298 | 0.23 | 0.305 | 0.209 | 0.199 | 1.02 | 0.947 | 0.935 | 1.02 | 0.935 | 0.272 |  | 0.352 | 0.47 | 0.363
LK-2 | 1.01 | 0.728 | 0.842 | 0.952 | 0.732 | 0.949 | 1.13 | 1.02 | 1.14 | 0.926 | 1.03 | 1.42 | 1.29 | 0.972 | 0.875 | 0.19 | 0.222 | 0.247 | 0.25 | 0.257
LOU-NH91 | 0.818 | 0.788 | 0.807 | 0.676 | 0.761 | 0.774 | 0.731 | 0.721 | 0.741 | 0.64 | 0.985 | 0.917 | 0.887 | 0.925 | 0.949 | 0.739 | 0.767 | 0.713 | 0.727 | 0.653
LU99A | 1.14 |  | 0.936 | 0.877 | 1.06 | 0.553 | 0.488 | 0.538 | 0.475 | 0.326 | 0.8 | 0.725 | 0.817 | 0.814 | 0.768 | 0.639 |  | 0.59 | 0.547 | 0.649
LXF-289 | 0.988 | 0.816 | 0.852 | 0.958 | 0.846 | 1.04 | 1.08 | 1.01 | 0.994 | 0.852 | 1.01 | 1.04 | 0.927 | 1.01 | 0.922 | 0.831 | 0.727 | 0.782 | 0.838 | 0.804
NCI-H23 | 0.977 |  | 1.21 | 0.881 | 1.38 | 0.548 | 0.725 | 0.643 | 0.814 | 0.224 | 1 | 0.919 | 0.852 | 0.991 | 0.478 | 0.472 |  | 0.557 | 0.518 | 0.597
NCI-H322M | 0.578 | 0.915 | 0.562 | 0.617 | 0.52 | 0.516 | 0.879 | 0.777 | 0.802 | 0.768 | 0.896 | 0.948 | 0.913 | 0.833 | 0.374 | 0.894 | 1.05 | 0.887 | 0.904 | 0.945
NCI-H358 | 0.478 | 0.666 | 0.454 | 0.419 | 0.466 | 0.898 | 0.818 | 0.711 | 0.305 | 0.164 | 0.754 | 0.393 | 0.448 | 0.212 | 0.0804 | 0.546 | 0.641 | 0.637 | 0.567 | 0.428
NCI-H460 | 1.05 | 1.01 | 0.905 | 1 | 0.639 | 0.62 | 0.495 | 0.464 | 0.214 | 0.0177 | 1.01 | 1.08 | 0.899 | 0.942 | 0.113 | 0.867 | 0.906 | 0.815 | 0.889 | 0.935
NCI-H520 | 0.977 |  | 0.605 | 0.759 | 0.785 | 0.792 | 0.767 | 0.911 | 0.761 | 0.295 | 0.808 | 0.798 | 0.767 | 0.58 | 0.424 | 0.93 |  | 0.665 | 0.801 | 0.598
NCI-H596 | 1.19 | 1.29 | 1.06 | 0.868 | 1.06 | 0.478 | 0.467 | 0.453 | 0.544 | 0.465 | 0.885 | 0.804 | 0.78 | 0.69 | 0.314 | 0.934 | 1.09 | 0.988 | 0.954 | 1.09
NCI-H647 | 1.46 | 1.19 | 1.08 | 1.02 | 1.19 | 1.24 | 1.17 | 1.1 | 0.781 | 0.102 | 1.18 | 1.23 | 1.16 | 0.979 | 0.528 | 1.24 | 1.03 | 0.86 | 1.1 | 1.18
NCI-H650 | 0.956 | 0.444 | 0.913 | 0.8 | 0.938 | 1.23 | 1.35 | 1.16 | 1.08 | 0.675 | 1.07 | 0.966 | 0.965 | 1.06 | 0.885 | 0.7 | 0.757 | 0.612 | 0.835 | 0.639
NCI-H661 | 0.552 | 0.738 | 0.403 | 0.494 | 0.544 | 0.687 | 0.65 | 0.53 | 0.817 | 0.68 | 1.05 | 1.01 | 1 | 0.815 | 0.6 | 0.964 | 0.922 | 0.935 | 1.02 | 1.04
NCI-H727 | 0.774 | 0.483 | 0.733 | 0.919 | 0.732 | 0.623 | 0.437 | 0.478 | 0.456 | 0.221 | 1.11 | 0.884 | 0.732 | 0.738 | 0.527 | 0.927 | 0.758 | 0.876 | 0.671 | 0.736
